# pIC50: −log10 of the molar value.
# Columns and labels:
# GTPase KRas = GTPase KRas (Homo sapiens, UniProt P01116, G12D); test: Inhibition of human KRAS G12D mutant in human AGS cells assessed as reduction in phosphorylated ERK level incubated for 3 hrs; format: cell-based
# [1] = Inhibition of KRAS G12D mutant (unknown origin) to CRAF (unknown origin) protein protein interaction; set-up: species or system Homo sapiens
# GTPase KRas/RAF1 = GTPase KRas/RAF1 (Homo sapiens, UniProt P01116); test: Inhibition of KRAS (unknown origin) to CRAF (unknown origin) protein protein interaction; format: protein assay
# Chain of GTPase KRas/RAF1 (P04049 whole entry): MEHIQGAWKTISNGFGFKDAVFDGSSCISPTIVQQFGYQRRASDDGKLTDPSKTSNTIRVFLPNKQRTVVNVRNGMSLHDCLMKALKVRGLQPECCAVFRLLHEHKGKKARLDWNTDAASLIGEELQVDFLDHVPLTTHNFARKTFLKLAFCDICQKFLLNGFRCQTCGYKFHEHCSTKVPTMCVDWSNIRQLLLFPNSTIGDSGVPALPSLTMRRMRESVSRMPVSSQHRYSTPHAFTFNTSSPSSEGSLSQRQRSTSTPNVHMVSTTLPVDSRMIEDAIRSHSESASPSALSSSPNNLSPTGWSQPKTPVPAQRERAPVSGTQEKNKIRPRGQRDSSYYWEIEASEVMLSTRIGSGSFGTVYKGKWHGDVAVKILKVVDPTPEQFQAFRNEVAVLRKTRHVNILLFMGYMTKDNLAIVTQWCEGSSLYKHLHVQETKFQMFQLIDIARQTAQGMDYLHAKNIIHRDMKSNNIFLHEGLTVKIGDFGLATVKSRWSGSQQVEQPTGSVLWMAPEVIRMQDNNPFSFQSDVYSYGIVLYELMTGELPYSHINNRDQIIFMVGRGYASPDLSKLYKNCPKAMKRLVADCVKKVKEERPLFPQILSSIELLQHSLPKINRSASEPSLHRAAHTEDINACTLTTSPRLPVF
# Chain of GTPase KRas/RAF1 (P01116 whole entry): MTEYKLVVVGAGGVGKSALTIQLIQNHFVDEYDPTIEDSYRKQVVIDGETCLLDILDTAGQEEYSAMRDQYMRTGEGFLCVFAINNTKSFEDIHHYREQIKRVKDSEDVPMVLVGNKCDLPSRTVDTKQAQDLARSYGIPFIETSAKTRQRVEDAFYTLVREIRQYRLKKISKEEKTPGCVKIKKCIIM
# Homo sapiens = species on record: Homo sapiens; test: Selectivity ratio of IC50 for inhibition of KRAS G12D mutant (unknown origin) to CRAF (unknown origin) protein protein interaction to IC50 for KRAS (unknown origin) to CRAF (unknown origin) protein protein interaction; settings: tested as the 2H-labelled form
# Chain of GTPase KRas (P01116 whole entry G12D): as the sequence (P01116 whole entry) above, with G12D counted along it
pIC50 (GTPase KRas),pIC50 [1],pIC50 (GTPase KRas/RAF1),Ratio IC50 (Homo sapiens),Structure (SMILES)
< 9.00,,,,Oc1cc(Cl)c(C(F)(F)F)c(-c2ncc3c(N4CC5CCC4CN5)nc(OCC45CCCN4CCC5)nc3c2F)c1 (centres undefined)
≥ 7.30,8.40,7.31,,[2H][C@H]1CN2CCC[C@@]2(COc2nc(N3CC4CCC3CN4)c3cnc(-c4cc(O)cc5ccc(F)c(C#C)c45)c(F)c3n2)C1 (some centres undefined)
≥ 7.30,,,> 72,Oc1cc(Cl)c(C2CC2)c(-c2ncc3c(N4CC5CCC4CN5)nc(OC[C@@]45CCCN4C[C@H](F)C5)nc3c2F)c1 (some centres undefined)
≥ 7.30,7.86,< 6.00,,[2H]C1([2H])CC[C@@]2(COc3nc(N4CC5CCC4CN5)c4cnc(-c5cc(O)cc(Cl)c5C5CC5)c(F)c4n3)C[C@@]([2H])(F)CN12 (some centres undefined)
≥ 7.30,8.29,7.22,,[2H]C1([2H])CC[C@@]2(COc3nc(N4CC5CCC4CN5)c4cnc(-c5cc(O)cc6ccc(F)c(C#C)c56)c(F)c4n3)C[C@@]([2H])(F)CN12 (some centres undefined)
< 7.30,,,,Oc1cc(Cl)c(C2CC2)c(-c2ncc3c(N4CC5CCC4CN5)nc(OC[C@]45CCCN4C[C@@H](F)C5)nc3c2F)c1 (some centres undefined)
,,,12,C#Cc1c(F)ccc2cc(O)cc(-c3ncc4c(N5CC6CCC5CN6)nc(OC[C@@]56CCCN5C[C@H](F)C6)nc4c3F)c12 (some centres undefined)
< 7.30,,,,[2H]C1([2H])CC[C@]2(COc3nc(N4CC5CCC4CN5)c4cnc(-c5cc(O)cc(Cl)c5C5CC5)c(F)c4n3)C[C@]([2H])(F)CN12 (some centres undefined)
,,,12,C#Cc1c(F)ccc2cc(O)cc(-c3ncc4c(N5CC6CCC5CN6)nc(OCC56CCCN5CCC6)nc4c3F)c12 (centres undefined)
≥ 7.30,,,,[2H]C1([2H])CC[C@@]2(COc3nc(N4CC5CCC4CN5)c4cnc(-c5cc(O)cc6ccc(F)c(F)c56)c(F)c4n3)C[C@@]([2H])(F)CN12 (some centres undefined)
< 7.30,,,,[2H]C1([2H])CC[C@@]2(COc3nc(N4CC5CCC4CN5)c4cnc(-c5cc(O)cc(F)c5C5CC5)c(F)c4n3)C[C@@]([2H])(F)CN12 (some centres undefined)
< 9.00,,,,Oc1ccc(C(F)(F)F)c(-c2ncc3c(N4CC5CCC4CN5)nc(OCC45CCCN4CCC5)nc3c2F)c1 (centres undefined)

# Source: ChEMBL document CHEMBL5247674, “Discovery of Selective and Potent KRASG12D Inhibitors as Potential Therapy in Cancer” (ACS Med Chem Lett, 2023)
